{"source": "PubChem BioAssay (NCI)", "note": "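48-hour exposure; five concentrations; linearly interpolated endpoints. Here, GI50 denotes the concentration required for 50% inhibition of growth. Definition used: TGI = concentration required for complete inhibition of growth.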"}
{"system": "M14 melanoma", "assay": "inhibition of tumour cell growth, NCI panel, 48 h", "units": {"TGI": "µM", "GI50": "µM"}}
{"smiles": "N#C/C(=C\\c1cc2ccccc2c2ccccc12)c1ccccc1", "TGI": 30}
{"smiles": "COC(=O)C12C3C4C1C1C2C3C41NC(=O)c1csc([C@@H](C[C@H](C(C)C)N(C)C(=O)[C@@H](NC(=O)[C@H]2CCCCN2C)C2CC2)OC(C)=O)n1", "note": "(stereo partly specified)", "GI50": 0.0253}
{"smiles": "CS(=O)(=O)c1cc(=O)c2ccccc2s1", "TGI": 3.44}
{"smiles": "CSc1nc2cc(S(=O)(=O)N3CCCCC3)ccc2s1", "TGI": "> 100"}
{"smiles": "Nc1nc(-c2cccc(Cl)c2)c(-c2ccc3ncccc3n2)s1", "GI50": "> 25", "TGI": "> 25"}
{"smiles": "Cc1ccc2c(c1)CN(C(=O)CCC(=O)OCc1ccccc1)c1ccc(C)cc1CN2C(=O)CCC(=O)OCc1ccccc1", "TGI": "> 100"}
{"smiles": "O=c1[nH]c(=O)n(C2OC(CO)C(O)C(O)C2O)cc1F", "note": "(stereo unspecified)", "TGI": "> 100"}
{"smiles": "c1cc[c]([Pb]([c]2ccccc2)[c]2ccccc2)cc1", "GI50": 14.2, "TGI": 47.4}
{"smiles": "CCCCN1CSC(=S)N(Cc2ccccc2)C1", "TGI": "> 100"}
{"system": "SF-295 CNS", "assay": "inhibition of tumour cell growth, NCI panel, 48 h", "units": {"GI50": "µM", "TGI": "µM"}}
{"smiles": "C=C1C(=O)O[C@H]2[C@H]1CC/C(COC(=O)c1cc3ccccc3s1)=C\\CC[C@@]1(C)O[C@@H]21", "GI50": 3.33, "TGI": 12.8}
{"smiles": "Fc1ccc(-c2nn3ncccc3c2-c2ccnc(Nc3ccc4c(c3)OCCO4)n2)cc1", "GI50": 6.35, "TGI": 18.6}
{"smiles": "CC1(C)N=C(N)N=C(N)N1c1ccc(OCc2ccc(S(=O)(=O)F)c(Cl)c2)c(Cl)c1", "GI50": 3.88, "TGI": "> 100"}
{"smiles": "CO[C@H]1C=C[C@@]23c4cc5c(cc4CO[C@]2(O)CN(C)[C@H]3C1)OCO5", "TGI": "> 100"}
{"smiles": "CC(C)N1CN(C(C(=O)N[C@@H]2C(=O)N3C2SC(C)(C)C3C(=O)O)c2ccccc2)CSC1=S", "note": "(stereo partly specified)", "TGI": "> 100"}
{"smiles": "COC(=O)c1c(C)[nH]c(/C=C2\\N=C(c3ccc[nH]3)C=C2OC)c1C", "GI50": 0.983, "TGI": 3.44}
{"smiles": "COc1cc2c3c(n(CCCCOC(=O)C(Cl)(Cl)Cl)c(=O)c2cc1OC)-c1cc2c(cc1C3=O)OCO2", "GI50": 8.71, "TGI": "> 100"}
{"smiles": "CCOC(=O)c1c(C)nc2c(c1N)/C(=C/c1ccc(OC)cc1)C(=O)N2Cc1ccc(F)cc1", "GI50": 1.37, "TGI": 3.59}
{"smiles": "CCCCOC(=O)NC(=O)c1cn(C2CCCCC2)c(=O)[nH]c1=O", "TGI": "> 100"}
{"smiles": "COc1cc(NS(=O)(=O)c2ccc(-c3cnc(C4CC4)o3)cc2)ccc1F", "GI50": 0.205, "TGI": 1.46}
{"smiles": "COc1ccccc1Cn1cc2c(c1-c1ccccc1)CCc1cnoc1-2", "GI50": 1.09, "TGI": 9.52}
{"smiles": "COc1cc2c(c(OC)c1OC)C(=O)[C@@H]1c3ccc([N+](=O)[O-])cc3C(=O)N(CCCBr)[C@H]21", "GI50": 2.04, "TGI": 19.7}
{"smiles": "O=C1OC(c2ccco2)=N/C1=C\\c1cccc([N+](=O)[O-])c1", "TGI": "> 100"}
{"smiles": "Nc1ncn(C2CC(O)C(CO)O2)c(=O)n1", "note": "(stereo unspecified)", "TGI": 247}
{"smiles": "COc1ccc(CNc2nc3cc(C(F)(F)F)ccc3nc2C)cc1OC", "TGI": "> 100"}
{"smiles": "N#CCc1ccc(C(C#N)/C(CCCC(=O)Nc2cccc([N+](=O)[O-])c2)=N/NC(N)=S)cc1", "note": "(stereo unspecified)", "TGI": "> 100"}
{"smiles": "COc1cc2c3c(n(C)c(=O)c2cc1OC)-c1cc2c(cc1/C3=C\\CNCCCN)OCO2", "GI50": 1.08, "TGI": 15.9}
{"smiles": "O=C(/C=C\\n1cnc(-c2cc(C(F)(F)F)cc(C(F)(F)F)c2)n1)NNc1cnccn1", "GI50": 0.0534, "TGI": 11.2}
{"smiles": "COc1ccc(-c2nnc(COc3ccc(NC(=O)Nc4ccc(Cl)c(C(F)(F)F)c4)cc3F)o2)cc1", "GI50": 2.48, "TGI": 9.06}
{"smiles": "CCN(CC)CCCC(C)Nc1cnc(C(=O)Nc2cccc3ccc(OC)nc23)cn1", "note": "(stereo unspecified)", "GI50": 15, "TGI": 29.9}
{"smiles": "N#C/C(=C\\c1cc2ccccc2c2ccccc12)c1ccccc1", "TGI": 19.9}
{"smiles": "COC(=O)C12C3C4C1C1C2C3C41NC(=O)c1csc([C@@H](C[C@H](C(C)C)N(C)C(=O)[C@@H](NC(=O)[C@H]2CCCCN2C)C2CC2)OC(C)=O)n1", "note": "(stereo partly specified)", "GI50": 0.0476, "TGI": "> 33.3"}
{"smiles": "CS(=O)(=O)c1cc(=O)c2ccccc2s1", "TGI": 24.8}
{"smiles": "CSc1nc2cc(S(=O)(=O)N3CCCCC3)ccc2s1", "TGI": "> 100"}
{"smiles": "Nc1nc(-c2cccc(Cl)c2)c(-c2ccc3ncccc3n2)s1", "GI50": "> 25", "TGI": "> 25"}
{"smiles": "Cc1ccc2c(c1)CN(C(=O)CCC(=O)OCc1ccccc1)c1ccc(C)cc1CN2C(=O)CCC(=O)OCc1ccccc1", "TGI": "> 100"}
{"smiles": "O=c1[nH]c(=O)n(C2OC(CO)C(O)C(O)C2O)cc1F", "note": "(stereo unspecified)", "TGI": "> 100"}
{"smiles": "c1cc[c]([Pb]([c]2ccccc2)[c]2ccccc2)cc1", "GI50": 21.9, "TGI": 58.3}
{"smiles": "CCCCN1CSC(=S)N(Cc2ccccc2)C1", "TGI": "> 100"}
